Test [1] addresses T1, Tyrosine-protein phosphatase non-receptor type 1 (Homo sapiens, UniProt P18031).
T1 sequence (P18031 whole entry): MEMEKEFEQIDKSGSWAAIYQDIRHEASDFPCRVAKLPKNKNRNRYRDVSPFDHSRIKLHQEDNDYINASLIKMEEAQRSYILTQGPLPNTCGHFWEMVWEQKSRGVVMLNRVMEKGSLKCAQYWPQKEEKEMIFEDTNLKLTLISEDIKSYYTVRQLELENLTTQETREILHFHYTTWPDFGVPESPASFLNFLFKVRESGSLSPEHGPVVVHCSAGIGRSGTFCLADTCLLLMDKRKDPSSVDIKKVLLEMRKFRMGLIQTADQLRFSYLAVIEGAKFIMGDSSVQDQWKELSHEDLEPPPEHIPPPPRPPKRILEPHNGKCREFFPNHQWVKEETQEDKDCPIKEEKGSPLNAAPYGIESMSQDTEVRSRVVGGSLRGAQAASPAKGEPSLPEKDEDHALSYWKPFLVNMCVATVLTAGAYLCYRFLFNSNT
In words: Inhibition of human recombinant PTP1B expressed in Escherichia coli BL21 (DE3) using pNPP as substrate by high-throughput screening assay.

The target of test [2] is T1, Tyrosine-protein phosphatase non-receptor type 1. The experiment in a line: Inhibition of Flag-tagged human PTP1B (1 to 298 residues) expressed in Escherichia coli BL21 using FDP as substrate.
For test [3], the target named is T2, Tyrosine-protein phosphatase non-receptor type 2 (Homo sapiens, UniProt P17706).
T2 sequence (P17706 whole entry): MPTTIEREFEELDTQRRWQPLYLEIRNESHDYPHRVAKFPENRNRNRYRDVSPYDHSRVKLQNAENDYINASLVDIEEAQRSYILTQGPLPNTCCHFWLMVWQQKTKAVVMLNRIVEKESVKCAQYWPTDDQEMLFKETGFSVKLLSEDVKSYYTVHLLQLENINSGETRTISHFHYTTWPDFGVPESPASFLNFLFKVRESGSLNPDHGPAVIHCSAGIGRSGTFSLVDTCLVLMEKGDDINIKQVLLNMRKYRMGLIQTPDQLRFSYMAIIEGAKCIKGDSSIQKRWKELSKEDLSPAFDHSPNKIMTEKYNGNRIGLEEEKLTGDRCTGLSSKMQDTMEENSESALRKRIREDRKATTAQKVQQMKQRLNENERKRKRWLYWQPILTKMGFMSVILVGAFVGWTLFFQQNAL
In words: Inhibition of Flag-tagged human TCPTP (1 to 296 residues) expressed in Escherichia coli BL21 using FDP as substrate.

The target of test [4] is T3, Aldo-keto reductase family 1 member B1 (Homo sapiens, UniProt P15121). The experiment in a line: Inhibition of human Aldose reductase using glyceraldehyde as substrate preincubated for 5 mins in presence of NADPH followed by substrate addition and measured after 3 mins by UV-visible spectrophotometric assay.
The target of test [5] is T3, Aldo-keto reductase family 1 member B1. In words: Inhibition of human ALR2 assessed as inhibition constant.
Test [6] has as its target T1, Tyrosine-protein phosphatase non-receptor type 1. In words: Inhibition of PTP1B (1 to 321 residues) (unknown origin) expressed in Escherichia coli BL21 assessed as inhibition constant using pNPP as substrate incubated for 60 min by Michaelis-Menten analysis.
The target is the same in test [7]. In words: Inhibition of human recombinant PTP1B using pNPP as substrate incubated for 40 min.
The target is the same in test [8]. In words: Inhibition of PTP1B (unknown origin) using DiFMUP as substrate incubated for 30 min by fluorescence based microplate reader assay.
The target of test [9] is T3, Aldo-keto reductase family 1 member B1. In words: Inhibition of Aldose reductase (unknown origin).
Test [10] in a line: Inhibition of ALR2 in rabbit lens using D,L-glyceraldehyde as substrate preincubated for 1 min in presence of NADPH followed by substrate addition and measured after 4 mins by spectrophotometric assay. The format is tissue-based, Oryctolagus cuniculus.
For test [11], the target named is T3, Aldo-keto reductase family 1 member B1. In words: Inhibition of Aldose reductase in human muscle tissue using D,L-glyceraldehyde as substrate in presence of NADPH by spectrophotometric assay. It counts as tissue-based.
Test [12] concerns the target T1, Tyrosine-protein phosphatase non-receptor type 1. The experiment in a line: Inhibition of human recombinant GST-tagged PTP1B (1 to 321 residues) expressed in Escherichia coli using pNPP as substrate by spectrophotometer assay.
The target is the same in test [13]. In words: Inhibition of human recombinant PTP1B expressed in Escherichia coli using pNPP as substrate by microplate reader assay.
Test [14] in a line: Inhibition of ALR2 in Wistar rat lens using D,L-glyceraldehyde as substrate preincubated for 1 min in presence of NADPH followed by substrate addition and measured after 4 mins by spectrophotometric assay. It counts as tissue-based.
Test [15] deals with T4, Peroxisome proliferator-activated receptor gamma (Homo sapiens, UniProt P37231).
T4 sequence (P37231 whole entry): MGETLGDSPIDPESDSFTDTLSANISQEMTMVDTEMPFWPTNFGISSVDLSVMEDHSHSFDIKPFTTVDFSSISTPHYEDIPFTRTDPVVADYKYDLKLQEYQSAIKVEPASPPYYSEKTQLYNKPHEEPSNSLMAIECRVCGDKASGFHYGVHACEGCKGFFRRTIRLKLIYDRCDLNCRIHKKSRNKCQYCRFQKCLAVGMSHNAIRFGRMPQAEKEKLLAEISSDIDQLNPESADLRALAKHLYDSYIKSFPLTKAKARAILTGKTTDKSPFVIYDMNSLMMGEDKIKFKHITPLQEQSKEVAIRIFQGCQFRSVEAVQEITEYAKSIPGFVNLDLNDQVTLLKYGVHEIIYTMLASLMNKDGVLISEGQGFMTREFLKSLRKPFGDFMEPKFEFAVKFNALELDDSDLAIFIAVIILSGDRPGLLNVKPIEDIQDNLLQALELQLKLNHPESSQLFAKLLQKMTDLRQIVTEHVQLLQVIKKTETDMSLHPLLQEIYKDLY
The experiment in a line: Agonist activity at Gal4-PPARgamma (unknown origin) transfected in HCT-116 cells incubated for 24 hrs by luciferase reporter assay. The format is cell-based. In general terms: Reporter assays use an easily measured gene product as a stand-in for the process of interest.

Usually IC50 stands for the midpoint of a concentration-inhibition curve. In the case of `Cc1cc(/C=C2/S/C(=N/c3ccc(Cl)cc3)NC2=O)c(C)n1-c1cc(C(=O)O)cc(C(=O)O)c1`, in [1], the IC50 amounted to 1600 nM.
`Cc1noc(-c2ccc(C(C/C=C/c3ccccc3)(Cc3ccc(C(F)(F)P(=O)(O)O)cc3)n3nnc4ccccc43)cc2)n1` (stereo not given): the IC50 was 163 nM in test [2] and 1600 nM in test [3].
For the molecule `Nc1ccc(CNC(=O)c2ccc(Cl)cc2OCC(=O)O)c(F)c1`, the IC50 in test [4] is 1300 nM.
For orientation: Ki means the dissociation constant of the complex between target and ligand, obtained from inhibition or displacement. On to `N#Cc1ccc(CNC(=O)c2ccc(Cl)cc2OCC(=O)O)cc1`, for which the Ki in [5] was determined as 2000 nM.
`O=C(O)C(=O)Nc1sc2c(c1C(=O)O)COC(COC1=NS(=O)(=O)c3ccccc31)C2` (stereo not given): in test [6], the Ki came to 600 nM.
As to `O=C(NCCCN1C[C@@H](O)[C@H](O)[C@H]1CO)c1ccc([N+](=O)[O-])cc1`, the IC50 in test [7] stood at 31000 nM.
In the case of `O=c1c2cc(O)c(O)cc2oc2cc(OCc3cccc(Cl)c3F)cc(O)c12`, the IC50 in test [8] was 600 nM.
With `O=[N+]([O-])c1cc(Br)cc2c1NC=NS2(=O)=O`, the IC50 in test [9] worked out at 4600 nM.
For the molecule `O=C(O)Cn1ccc2ccccc21`, the half-maximal inhibitory concentration (IC50) in test [10] stood at 7000 nM.
For the molecule `Cc1ccc(F)c(N(C)S(=O)(=O)C[N+](=O)[O-])c1`, the IC50 in test [11] was 350 nM.
For the molecule `O=C1/C(=C/c2ccc(-c3ccccc3)cc2)NC(=S)N1c1ccccc1`, in [12], the IC50 came out at 2900 nM.
With `CC(=C\c1csc([C@@H](Cc2ccc(OCc3ccccc3)cc2)NC(=O)CC2CCCCC2)n1)/C=C(\C)C(=O)O`, the IC50 in test [13] is 2480 nM.
For orientation: EC50 means the concentration that produces a half-maximal response. A lower EC50 goes with a more potent agent. As for `O=C(O)Cn1ccc2cc(OCc3ccccc3)ccc21`, the IC50 in test [14] worked out at 460 nM. In addition, the EC50 in [15] was more than 47400 nM.
